Publication PMC10761119, “Phosphorylation-state dependent intraneuronal sorting of Aβ differentially impairs autophagy and the endo-lysosomal system” (Autophagy, 2023)

System: primary cortical neurons
Assay: Western immunoblot of Aβ aggregation during incubation with neurons
Assay type: cell-based, mouse
Settings: Aβ 500 nM, 4 h; NuPAGE and western immunoblot with 82E1; compared to npAβ or p-Ser26Aβ
Procedure: Cells were collected by scraping and mechanically homogenized in hypotonic D buffer (10 mM Tris-HCl, pH 7.4, 10 mM NaCl, 0.1 mM EGTA, 25 mM glycerol 2-phosphate, 1 mM DTT) containing protease and phosphatase inhibitors by repeated suspension through a 23 G × 1” needle. Post-nuclear supernatant (PNS) was collected by centrifugation of the mechanically homogenized cellular material at 2,000 g for 5 min. The pellet was the nuclear material. […]
For different cellular fractions prepared as described earlier, the protein content was estimated using the standard Pierce™ BCA protein assay kit (ThermoFisher Scientific, 23225). […] Blots were developed either by enhanced chemiluminescence (ECL) or fluorescence imaging. […] Signals were detected with an ECL imager (Bio-Rad, Germany). For fluorescence detection, blots were imaged on a Li-COR imaging station (Li-COR Biosciences, Germany). […] Quantification of band signals was done using ImageJ – Gel processing module or Image Studio processing software (LiCOR Biosciences, Germany). All samples were analyzed in biological duplicates in two or three independent experiments as indicated in the respective figure legends. […]

amyloid-β phosphorylated at serine residue 8 [p-Ser8Aβ]
SDS resistant aggregates formed during the incubation with neurons: forms more SDS resistant aggregates
